Results: the NIST ThermoML archive (doi:10.1021/je100484n)

Tests used:
[1] = 101 kPa, Liquid
[2] = refractive index (Na D-line) (dimensionless); conditions: 101.33 kPa, Liquid
[3] = refractive index (Na D-line) (dimensionless); xn = mol fraction of the nth substance listed; conditions: 101 kPa, Liquid
[4] = xn = mol fraction of the nth substance listed; conditions: 101 kPa, Liquid, x2 = 0

CC(C)(C)O [2-methylpropan-2-ol]
Conditions | mass density, 303.15 K [kg/m3] | mass density, 308.15 K [kg/m3] | mass density, 313.15 K [kg/m3] | mass density, 318.15 K [kg/m3] | mass density, 323.15 K [kg/m3] | refractive index, 303.15 K | refractive index, 308.15 K | refractive index, 313.15 K | refractive index, 318.15 K | refractive index, 323.15 K
[1] | 775.412 | 770.193 | 764.884 | 759.488 | 754.015 | – | – | – | – | –
[2] | – | – | – | – | – | 1.38222 | 1.37947 | 1.37667 | 1.37384 | 1.37097

CC(C)(C)O [2-methylpropan-2-ol] + NC1CCCCC1
[3], x1 = 1
Conditions | refractive index
303.15 K | 1.38222
308.15 K | 1.37947
313.15 K | 1.37667
318.15 K | 1.37384
323.15 K | 1.37097

NC1CCCCC1 [cyclohexylamine]
[2]
Conditions | refractive index
303.15 K | 1.45375
308.15 K | 1.45114
313.15 K | 1.44856
318.15 K | 1.44599
323.15 K | 1.44336

NC1CCCCC1 [cyclohexylamine] + CC(C)(C)O
refractive index, [3]
Conditions | 303.15 K | 308.15 K | 313.15 K | 318.15 K | 323.15 K
x2 = 0 | 1.45375 | 1.45114 | 1.44856 | 1.44599 | 1.44336
x2 = 0.0508 | 1.45149 | 1.44888 | 1.44629 | 1.44368 | 1.44108
x2 = 0.1002 | 1.44914 | 1.44655 | 1.44395 | 1.44132 | 1.43876
x2 = 0.1502 | 1.44664 | 1.44404 | 1.44142 | 1.43884 | 1.43629
x2 = 0.2001 | 1.44406 | 1.44146 | 1.43888 | 1.4363 | 1.43371
x2 = 0.3005 | 1.43846 | 1.43586 | 1.43328 | 1.43068 | 1.42812
x2 = 0.3991 | 1.4325 | 1.42991 | 1.42732 | 1.42471 | 1.42218
x2 = 0.4996 | 1.42579 | 1.42321 | 1.42064 | 1.41804 | 1.41553
x2 = 0.5998 | 1.41855 | 1.41598 | 1.41339 | 1.41077 | 1.40818
x2 = 0.6997 | 1.41063 | 1.40805 | 1.40544 | 1.40284 | 1.40018
x2 = 0.7999 | 1.40191 | 1.39934 | 1.39676 | 1.39405 | 1.3914
x2 = 0.8712 | 1.39554 | 1.39281 | 1.39012 | 1.38734 | 1.38459
x2 = 0.8992 | 1.39261 | 1.38996 | 1.38723 | 1.3845 | 1.38176
x2 = 0.9504 | 1.38751 | 1.3848 | 1.38207 | 1.37923 | 1.37642

NC1CCCCC1 [cyclohexylamine] + CCCCCCC
refractive index, [3]
Conditions | 303.15 K | 308.15 K | 313.15 K | 318.15 K | 323.15 K
x1 = 0.0501 | 1.38508 | 1.38246 | 1.37983 | 1.37719 | 1.37451
x1 = 0.1002 | 1.38768 | 1.38507 | 1.38246 | 1.37983 | 1.37717
x1 = 0.1501 | 1.39038 | 1.38778 | 1.38516 | 1.38255 | 1.37991
x1 = 0.2305 | 1.39503 | 1.39245 | 1.38984 | 1.38719 | 1.38449
x1 = 0.3004 | 1.3993 | 1.39673 | 1.3941 | 1.39149 | 1.38874
x1 = 0.401 | 1.40584 | 1.40324 | 1.40059 | 1.39797 | 1.39527
x1 = 0.4497 | 1.40915 | 1.40655 | 1.40392 | 1.40129 | 1.39851
x1 = 0.5597 | 1.41708 | 1.41446 | 1.41182 | 1.40915 | 1.40647
x1 = 0.6001 | 1.42001 | 1.41739 | 1.41478 | 1.41215 | 1.40951
x1 = 0.6498 | 1.4238 | 1.4212 | 1.41859 | 1.41595 | 1.41327
x1 = 0.6994 | 1.42771 | 1.4251 | 1.42248 | 1.41981 | 1.41719
x1 = 0.7999 | 1.43588 | 1.43327 | 1.43065 | 1.428 | 1.42528
x1 = 0.8992 | 1.44452 | 1.44189 | 1.43928 | 1.43667 | 1.43405
x1 = 1 | 1.45375 | 1.45114 | 1.44856 | 1.44599 | 1.44336

CCCCCCC [heptane]
Conditions | mass density, 303.15 K [kg/m3] | mass density, 308.15 K [kg/m3] | mass density, 313.15 K [kg/m3] | mass density, 318.15 K [kg/m3] | mass density, 323.15 K [kg/m3] | refractive index, 303.15 K | refractive index, 308.15 K | refractive index, 313.15 K | refractive index, 318.15 K | refractive index, 323.15 K
[1] | 675.229 | 670.941 | 666.621 | 662.273 | 657.896 | – | – | – | – | –
[2] | – | – | – | – | – | 1.38259 | 1.37995 | 1.37731 | 1.37463 | 1.37197

CCCCCCC [heptane] + CC(C)(C)O
[4]
Conditions | mass density [kg/m3]
303.15 K | 675.229
308.15 K | 670.941
313.15 K | 666.621
318.15 K | 662.273
323.15 K | 657.896

[3], x2 = 0
Conditions | refractive index
303.15 K | 1.38259
308.15 K | 1.37995
313.15 K | 1.37731
318.15 K | 1.37463
323.15 K | 1.37197

CCCCCCC [heptane] + NC1CCCCC1
[3], x2 = 0
Conditions | refractive index
303.15 K | 1.38259
308.15 K | 1.37995
313.15 K | 1.37731
318.15 K | 1.37463
323.15 K | 1.37197
